Data on six compounds can be found in ChEMBL document CHEMBL3779869, “Synthesis, identification, and biological activity of metabolites of two novel selective S1P1 agonists” (Bioorg Med Chem, 2016).

Molecules are shown by their SMILES. Activity calls are given as the source filed them. The calls are words filed in the database; no cut-off is given here.

One may read the EC50 as the concentration giving half of the maximal effect. High values mean a need for much substance, low ones an effect from little substance.

The target in series [1] is Sphingosine 1-phosphate receptor 1 (Homo sapiens, UniProt P21453). Kind of series: Agonist activity at S1P1 receptor (unknown origin) expressed in CHO cells incubated for 2 hrs by HTRF-IP1 assay. It is filed as cell-based. In general terms: In TR-FRET formats the signal depends on donor and acceptor labels being close together.
Sequence of Sphingosine 1-phosphate receptor 1 (P21453 whole entry): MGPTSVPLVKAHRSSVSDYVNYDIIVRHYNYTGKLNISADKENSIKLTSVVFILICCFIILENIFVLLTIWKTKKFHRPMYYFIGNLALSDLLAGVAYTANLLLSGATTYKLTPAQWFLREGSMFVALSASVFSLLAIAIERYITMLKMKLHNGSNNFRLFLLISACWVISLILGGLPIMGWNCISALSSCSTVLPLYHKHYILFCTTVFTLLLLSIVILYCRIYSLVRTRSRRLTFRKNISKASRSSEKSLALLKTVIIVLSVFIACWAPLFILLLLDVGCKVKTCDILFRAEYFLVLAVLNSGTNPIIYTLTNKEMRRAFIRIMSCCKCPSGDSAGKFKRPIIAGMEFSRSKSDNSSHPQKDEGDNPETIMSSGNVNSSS
Series [2] addresses Sphingosine 1-phosphate receptor 3 (Homo sapiens, UniProt Q99500). Put plainly: Agonist activity at S1P3 receptor (unknown origin) expressed in CHO cells incubated for 2 hrs by HTRF-IP1 assay. It is filed as cell-based.
For series [3], the system named is Blood. Kind of series: Drug level in Sprague-Dawley rat blood assessed as compound formation treated with SYL927 at 3 mg/kg, po measured at 0.08 to 48 hrs by LC-MS/MS analysis. It is filed as ADME, organism-based. As to conditions: in vivo.
Series [4] deals with Blood. Kind of series: Retention time of compound in Sprague-Dawley rat blood treated with SYL927 at 3 mg/kg, po by LC-MS/MS analysis. It is filed as ADME, organism-based. The conditions noted are these: in vivo.
Another series deals with Rattus norvegicus. Put plainly: Lymphopenia activity in Sprague-Dawley rat assessed as decrease in lymphocytes in peripheral blood at 3 mg/kg, po after 24 hrs by hematology analyzer. It is filed as functional, organism-based.
The next series is filed under the species Homo sapiens. Put plainly: Selectivity ratio of EC50 for S1P3 receptor (unknown origin) to EC50 for S1P1 receptor (unknown origin).
The subject of series [5] is Blood. Kind of series: Drug level in Sprague-Dawley rat blood assessed as compound formation treated with SYL930 at 3 mg/kg, po measured at 0.08 to 48 hrs by LC-MS/MS analysis. It is filed as ADME, organism-based. The conditions noted are these: in vivo.
In series [6] the test system is Blood. Put plainly: Retention time of compound in Sprague-Dawley rat blood treated with SYL930 at 3 mg/kg, po by LC-MS/MS analysis. The conditions noted are these: in vivo. It is filed as ADME, organism-based.
The subject of series [7] is Blood. Kind of series: Drug metabolism in Sprague-Dawley rat blood assessed as formation of 2-amino-2-(2-(4'-(2-(2-hydroxypropyl)oxazol-4-yl)biphenyl-4-yl)ethyl)propane-1,3-diol hydrochloride at 3 mg/kg, po measured at 0.08 to 48 hrs by LC-MS/MS analysis. It is filed as ADME, organism-based. As to conditions: in vivo.
Series [8] deals with Blood. Put plainly: Drug metabolism in Sprague-Dawley rat blood assessed as formation of 2-amino-2-(2-(4'-(2-(1-hydroxyethyl)oxazol-4-yl)biphenyl-4-yl)ethyl)propane-1,3-diol hydrochloride at 3 mg/kg, po measured at 0.08 to 48 hrs by LC-MS/MS analysis. It is filed as ADME, organism-based. The conditions noted are these: in vivo.

Sequence of Sphingosine 1-phosphate receptor 3 (Q99500 whole entry): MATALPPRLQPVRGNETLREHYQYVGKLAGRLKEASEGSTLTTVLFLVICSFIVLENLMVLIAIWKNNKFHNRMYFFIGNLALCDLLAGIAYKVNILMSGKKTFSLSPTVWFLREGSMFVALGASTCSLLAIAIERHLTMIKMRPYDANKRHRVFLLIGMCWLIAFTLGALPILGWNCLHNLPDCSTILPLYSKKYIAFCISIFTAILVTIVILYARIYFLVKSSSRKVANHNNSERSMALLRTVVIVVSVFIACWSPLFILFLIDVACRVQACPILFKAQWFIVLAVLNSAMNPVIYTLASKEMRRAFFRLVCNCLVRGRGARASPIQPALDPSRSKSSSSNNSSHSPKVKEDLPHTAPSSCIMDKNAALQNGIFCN

As to `CC(O)c1nc(-c2ccc(-c3ccc(CCC(N)(CO)CO)cc3)cc2)co1.Cl` (stereo unspecified), the EC50 in [1] and in [2] was over 10000 nM in each case. Moreover, the Drug metabolism result with Blood [3] is reported as “metabolite_detected”. The compound further gave a Retention_time in the series on Blood [4] of 6.6 min. The outcome in the series on Rattus norvegicus was Active.

Take `CC(O)Cc1nc(-c2ccc(-c3ccc(CCC(N)(CO)CO)cc3)cc2)co1.Cl` (stereo unspecified): the 50% effective concentration (EC50) in series [1] is 1520 nM; in series [2], over 10000 nM. Further, the Ratio EC50 in the series listed under Homo sapiens was over 6. In addition, the Drug metabolism entry in the series on Blood [5] is given as “metabolite_detected”. The outcome in the series on Rattus norvegicus was Active. In the series with Blood [6], this compound displayed a Retention_time of 13 min.

As for `CCc1nc(-c2ccc(-c3ccc(CCC(N)(CO)COP(=O)(O)O)cc3)cc2)co1` (stereo unspecified), the EC50 in series [1] worked out at 7 nM; in series [2] it was 1060 nM. Further, the Ratio EC50 in the series filed under Homo sapiens amounted to 151.

`CCCc1nc(-c2ccc(-c3ccc(CCC(N)(CO)CO)cc3)cc2)co1.Cl`: the EC50 is 1610 nM in series [1] and over 10000 nM in series [2]. Besides, the Ratio EC50 in the series listed under Homo sapiens is over 6. For the same compound, in the series with Blood [7], the Drug metabolism result is “metabolite_detected”. In the series with Rattus norvegicus, the result was Active.

As to `CCCc1nc(-c2ccc(-c3ccc(CCC(N)(CO)COP(=O)(O)O)cc3)cc2)co1` (stereo unspecified), the EC50 in series [1] was 13.3 nM; in [2], 484 nM. The Ratio EC50 in the series listed under Homo sapiens was determined as 36.

Turning to `CCc1nc(-c2ccc(-c3ccc(CCC(N)(CO)CO)cc3)cc2)co1.Cl`, the concentration for a half-maximal effect (EC50) in [1] and in series [2] was over 10000 nM in each case. In addition, in the series on Blood [8], the Drug metabolism result is “metabolite_detected”. Also, the outcome in the series with Rattus norvegicus was Active.
